Laboratory results reported in PubChem BioAssay AID1963433 (Molecular Pharmacology Branch, DTP, NCI, 2024).

System: 772245-204-R-J1-PDC complex spheroid growth
Test: Anticancer human tumor 772245-204-R-J1-PDC patient-derived rhabdomyosarcoma cell line growth inhibition [Asc]
Conditions: for IC50: curve of first compound; for viability, T/C: stronger effect = lower value
Summary of the method: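 Complex spheroids combining tumor cells with HUVEC endothelial cells and human MSCs, at 37 degrees C, 5% CO2; agents tested alone or combined, half-log dilutions from at or near clinical Cmax, or 10 microM if Cmax unknown.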

[1] = second compound 0.01 µM, first compound 0.0316 µM
[2] = second compound 0.01 µM, first compound 0.1 µM
[3] = second compound 0.01 µM, first compound 0.316 µM
[4] = second compound 0.01 µM, first compound 1 µM
[5] = second compound 0.0316 µM, first compound 0.0316 µM
[6] = second compound 0.0316 µM, first compound 0.1 µM
[7] = second compound 0.0316 µM, first compound 0.316 µM
[8] = second compound 0.0316 µM, first compound 1 µM
[9] = second compound 0.1 µM, first compound 0.0316 µM
[10] = second compound 0.1 µM, first compound 0.1 µM
[11] = second compound 0.1 µM, first compound 0.316 µM
[12] = second compound 0.1 µM, first compound 1 µM
[13] = second compound 0.316 µM, first compound 0.0316 µM
[14] = second compound 0.316 µM, first compound 0.1 µM
[15] = second compound 0.316 µM, first compound 0.316 µM
[16] = second compound 0.316 µM, first compound 1 µM
[17] = second compound 1 µM, first compound 0.0316 µM
[18] = second compound 1 µM, first compound 0.1 µM
[19] = second compound 1 µM, first compound 0.316 µM
[20] = second compound 1 µM, first compound 1 µM
[21] = second compound 0.01 µM, first compound 0.00316 µM
[22] = second compound 0.01 µM, first compound 0.01 µM
[23] = second compound 0.0316 µM, first compound 0.00316 µM
[24] = second compound 0.0316 µM, first compound 0.01 µM
[25] = second compound 0.1 µM, first compound 0.00316 µM
[26] = second compound 0.1 µM, first compound 0.01 µM
[27] = second compound 0.316 µM, first compound 0.00316 µM
[28] = second compound 0.316 µM, first compound 0.01 µM
[29] = second compound 1 µM, first compound 0.00316 µM
[30] = second compound 1 µM, first compound 0.01 µM
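Further: compound exposure lasted seven days.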
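Wherever viability, T/C is given: 100% = DMSO vehicle control viability.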

SMILES | IC50 (second compound 0.01 µM) [nM] | IC50 (second compound 0.0316 µM) [nM] | IC50 (second compound 0.1 µM) [nM] | IC50 (second compound 0.316 µM) [nM] | IC50 (second compound 1 µM) [nM] | viability, T/C [1] [%] | viability, T/C [2] [%] | viability, T/C [3] [%] | viability, T/C [4] [%] | viability, T/C [5] [%] | viability, T/C [6] [%] | viability, T/C [7] [%] | viability, T/C [8] [%] | viability, T/C [9] [%] | viability, T/C [10] [%] | viability, T/C [11] [%] | viability, T/C [13] [%] | viability, T/C [14] [%] | viability, T/C [17] [%] | viability, T/C [18] [%] | other results
C=CC(=O)N1CCN(c2nc(=O)n(-c3c(C)ccnc3C(C)C)c3nc(-c4c(O)cccc4F)c(F)cc23)C(C)C1 (stereo not given) + CNC(C)C(=O)NC1CN(S(=O)(=O)c2cccc(S(=O)(=O)N3CCC4CCC(C(=O)NC(c5ccccc5)c5ccccc5)N4C(=O)C(NC(=O)C(C)NC)C3)c2)CCC2CCC(C(=O)NC(c3ccccc3)c3ccccc3)N2C1=O | > 10000 | > 10000 | > 10000 | > 10000 | > 10000 | 98.5 | 84.7 | 91.6 | 100 | 94.4 | 93.6 | 101 | 92.7 | 92 | 88.9 | 108 | 94.5 | 95.5 | 106 | 94.3 | viability, T/C (second compound 0.01 µM, first compound 3.16 µM): 92%; viability, T/C (second compound 0.01 µM, first compound 10 µM): 89%; viability, T/C (second compound 0.0316 µM, first compound 3.16 µM): 101%; viability, T/C (second compound 0.0316 µM, first compound 10 µM): 90.6%; viability, T/C [12]: 97.2%; viability, T/C (second compound 0.1 µM, first compound 3.16 µM): 88.8%; viability, T/C (second compound 0.1 µM, first compound 10 µM): 92.2%; viability, T/C [15]: 97.6%; viability, T/C [16]: 103%; viability, T/C (second compound 0.316 µM, first compound 3.16 µM): 95.7%; viability, T/C (second compound 0.316 µM, first compound 10 µM): 80.1%; viability, T/C [19]: 101%; viability, T/C [20]: 97.2%; viability, T/C (second compound 1 µM, first compound 3.16 µM): 88.9%; viability, T/C (second compound 1 µM, first compound 10 µM): 95%
COc1c(OCCCN2CCOCC2)ccc2c3n(c(=NC(=O)c4cnc(N)nc4)nc12)CCN3 + CNC(C)C(=O)NC1CN(S(=O)(=O)c2cccc(S(=O)(=O)N3CCC4CCC(C(=O)NC(c5ccccc5)c5ccccc5)N4C(=O)C(NC(=O)C(C)NC)C3)c2)CCC2CCC(C(=O)NC(c3ccccc3)c3ccccc3)N2C1=O | 193 | 89.5 | 114 | 72.6 | 111 | 81.7 | 64.3 | 38.4 | 26.9 | 78.2 | 47.9 | 38.8 | 27.2 | 68.1 | 53.8 | 35.4 | 73.4 | 40.1 | 75.7 | 51.3 | viability, T/C [21]: 108%; viability, T/C [22]: 95.2%; viability, T/C [23]: 93.7%; viability, T/C [24]: 112%; viability, T/C [25]: 97.4%; viability, T/C [26]: 97.2%; viability, T/C [12]: 23.2%; viability, T/C [27]: 92.9%; viability, T/C [28]: 93.8%; viability, T/C [15]: 30.7%; viability, T/C [16]: 22%; viability, T/C [29]: 86%; viability, T/C [30]: 96.6%; viability, T/C [19]: 32.5%; viability, T/C [20]: 21.6%
NC1CCC(NC2CC2c2ccccc2)CC1 (stereo not given) + CNC(C)C(=O)NC1CN(S(=O)(=O)c2cccc(S(=O)(=O)N3CCC4CCC(C(=O)NC(c5ccccc5)c5ccccc5)N4C(=O)C(NC(=O)C(C)NC)C3)c2)CCC2CCC(C(=O)NC(c3ccccc3)c3ccccc3)N2C1=O | > 100 | > 100 | > 100 | > 100 | > 100 | 98.5 | 89.5 | – | – | 90.7 | 88 | – | – | 90.9 | 82.2 | – | 88.3 | 98.7 | 78.9 | 91.2 | viability, T/C (second compound 0.01 µM, first compound 0.000316 µM): 111%; viability, T/C (second compound 0.01 µM, first compound 0.001 µM): 104%; viability, T/C [21]: 91.6%; viability, T/C [22]: 105%; viability, T/C (second compound 0.0316 µM, first compound 0.000316 µM): 85.7%; viability, T/C (second compound 0.0316 µM, first compound 0.001 µM): 91.9%; viability, T/C [23]: 88.5%; viability, T/C [24]: 94.8%; viability, T/C (second compound 0.1 µM, first compound 0.000316 µM): 92%; viability, T/C (second compound 0.1 µM, first compound 0.001 µM): 103%; viability, T/C [25]: 87.5%; viability, T/C [26]: 88.4%; viability, T/C (second compound 0.316 µM, first compound 0.000316 µM): 97.1%; viability, T/C (second compound 0.316 µM, first compound 0.001 µM): 90.1%; viability, T/C [27]: 102%; viability, T/C [28]: 86.9%; viability, T/C (second compound 1 µM, first compound 0.000316 µM): 100%; viability, T/C (second compound 1 µM, first compound 0.001 µM): 88.1%; viability, T/C [29]: 92.9%; viability, T/C [30]: 86.6%
